Legend:
cathepsin G = biological target: T1, cathepsin G (Homo sapiens, UniProt P08311); assay: Selectivity against various proteases: cathepsin G (CTG); format: biochemical; details: cathepsin G 50 nM, human white blood cells, pH 7.5, 30° C., 10 minute preincubation
T1 construct: Purified Cathepsin G from human white blood cells; from tissue; host or cells: human white blood cells
T1 sequence (P08311 21-244 limits assumed): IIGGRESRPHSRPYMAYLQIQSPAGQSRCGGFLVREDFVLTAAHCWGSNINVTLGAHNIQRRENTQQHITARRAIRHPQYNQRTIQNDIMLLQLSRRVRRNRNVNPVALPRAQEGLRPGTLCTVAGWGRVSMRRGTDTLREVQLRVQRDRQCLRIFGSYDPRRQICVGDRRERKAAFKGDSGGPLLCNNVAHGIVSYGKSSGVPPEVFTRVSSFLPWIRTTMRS
Protocol: Reaction mixture: […] 500 mM NaCl […] 2.0 mM Substrate Except for Cathepsin D, the enzyme activities were determined by monitoring the increase in absorbance at 410 nm caused by the hydrolysis of chromogenic substrates. The activity of Cathepsin D was determined by monitoring the absorbance of 5% trichloroacetic acid-soluble material at 280 nm. Inhibition of enzymes by the compounds described were determined after a 10 minute preincubation with enzymes in reaction mixtures minus substrate. Reactions were initiated by the addition of substrates. The concentration used for assays were porcine pancreatic elastase at 240 nM and human Cathepsin G at 50 nM. Cathepsin D was used at the concentration that produced approximately 0.15 O.D. increase per 20 min at 280 nm under the standard conditions. All other proteases were assayed at the concentrations that produced approximately 0.1 O.D. change per minute at 410 nm under the standard conditions.

[1] = biological target: T2, human leukocyte elastase (HLE) (Homo sapiens, UniProt P08246); assay: Enzyme assay for inhibition of HLE (Table I, activity against ILE); format: biochemical; details: HLE 10 nM, 10 minute preincubation, pH 7.6, 30° C.
T2 construct: Purified elastase from human white blood cells; from tissue; host or cells: human white blood cells
T2 sequence (P08246 30-247 limits assumed): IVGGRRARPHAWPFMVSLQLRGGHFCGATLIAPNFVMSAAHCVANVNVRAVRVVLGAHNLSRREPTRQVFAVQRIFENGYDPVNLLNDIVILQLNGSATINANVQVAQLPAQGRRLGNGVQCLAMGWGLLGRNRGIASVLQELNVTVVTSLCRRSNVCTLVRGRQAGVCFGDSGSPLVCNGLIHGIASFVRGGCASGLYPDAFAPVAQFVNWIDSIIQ
Protocol: Enzyme Assay for Inhibition of HLE
Enzyme: Purified elastase from human white blood cells.
MeO-succinyl-L-alanyl-L-alanyl-L-propyl-L-valine-p-nitroanilide (NA)
10 mM phosphate buffer (pH 7.6)
10% dimethylsulfoxide (DMSO)
The enzyme activity was determined by monitoring the increase in absorbance at […] caused by the hydrolysis of chromogenic substrates. Inhibition of enzyme by the compounds described were determined after a 10 minute preincubation with the enzyme in reaction mixture minus substrate. Reaction was initiated by the addition of substrate. The concentration of human leukocyte elastase used for assay was at 10 nM.
HLE, CTG, PPE, and CTD were tested at 30° C. and the others were […]

An IC50 (cathepsin G) of 16.2 µM and an IC50 [1] of 0.00336 µM were found for `CC1=C(C(=O)OC(c2ccccc2)c2ccccc2)N2C(=O)[C@H](Br)[C@H]2S(=O)(=O)C12CC2(c1ccccc1)c1ccccc1` (single isomer, unassigned) [Example 2, benzhydryl 7α-bromo-2-spiro(2', 2'-diphenyl) cyclopropyl-3-methyl-3-cephem-4-carboxylate-1,1-dioxide] in this work.
